Measurements from patent publication US5547978A, “Derivatives of pyrrolidin-2-ylcarbonylheterocyclic compounds” (priority 1994, dated 1996).

Biological target: T1, prolyl endopeptidase (Sus scrofa, UniProt P23687)
T1 construct: porcine kidney enzyme which was prepared according to methods of Walter and Yoshimoto et al; from tissue; host or cells: porcine kidney
Assay: Prolyl endopeptidase-inhibitory activity in vitro (porcine kidney enzyme, Z-Gly-Pro-p-nitroanilide substrate)
Format: biochemical
Details: not given
Description: A test compound (2 mg) was dissolved in DMSO (2 ml) and diluted to appropriate concentrations with DMSO. Z-Gly-Pro-p-nitroanilide (8 mg), a substrate was dissolved in dioxane (5 ml), water (27 ml) and 0.2 M phosphate buffer (pH 7.8, 40 ml). The substrate solution ([…]) was mixed with an inhibitor solution (3 ml) and followed by addition of above mentioned porcine kidney enzyme solution ([…]). Immediately after the mixing the UV absorbance at 405 nm was detected. The mixture was incubated at 37° C. for 20 min. and the UV absorbance was checked. A standard curve of absorbance (OD) vs. p-nitroaniline concentration was used to relate the absorbance to amount of substrate hydrolyzed. […] The inhibiting activity was obtained following the equation below. The IC50 value was estimated from the inhibitor concentration vs. inhibitory activity curve.
The percent inhibitory activity (%)=(ΔODc -ΔODs)/ΔODc ×100
ΔODs : ΔOD for test sample

T1 sequence (P23687 whole entry): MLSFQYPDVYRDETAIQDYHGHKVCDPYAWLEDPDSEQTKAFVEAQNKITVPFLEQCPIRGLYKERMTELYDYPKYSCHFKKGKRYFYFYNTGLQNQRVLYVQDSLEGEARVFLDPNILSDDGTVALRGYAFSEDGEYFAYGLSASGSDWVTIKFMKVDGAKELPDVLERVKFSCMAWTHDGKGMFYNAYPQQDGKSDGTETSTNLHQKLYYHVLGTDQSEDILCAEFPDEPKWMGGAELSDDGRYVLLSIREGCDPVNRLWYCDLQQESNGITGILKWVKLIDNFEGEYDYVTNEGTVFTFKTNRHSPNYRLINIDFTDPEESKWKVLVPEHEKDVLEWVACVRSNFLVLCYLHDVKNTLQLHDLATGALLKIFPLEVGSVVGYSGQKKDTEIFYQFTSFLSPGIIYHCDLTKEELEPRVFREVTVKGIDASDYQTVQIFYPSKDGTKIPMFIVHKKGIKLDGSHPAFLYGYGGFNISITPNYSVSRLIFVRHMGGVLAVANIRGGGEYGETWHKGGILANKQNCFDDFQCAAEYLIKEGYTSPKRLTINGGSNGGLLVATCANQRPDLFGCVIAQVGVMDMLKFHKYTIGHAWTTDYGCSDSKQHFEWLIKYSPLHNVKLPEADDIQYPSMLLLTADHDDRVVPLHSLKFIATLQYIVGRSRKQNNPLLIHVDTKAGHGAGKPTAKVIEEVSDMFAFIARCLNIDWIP

Point of comparison: `O=C(c1cccnc1)[C@@H]1CCCN1C(=O)[C@@H]1CCCN1C(=O)CCCc1ccccc1` [Example 30, 3-[1-{1-(4-Phenylbutanoyl)pyrrolidin-2(S)-ylcarbonyl}pyrrolidin-2(S)-ylcarbonyl]pyridine], IC50 2620 nM. Against it:
- O=C(c1nccs1)[C@@H]1CCCN1C(=O)[C@@H]1C[C@@H](Sc2ccccc2)CN1C(=O)OCc1ccccc1 [Example 2, 2-[1-{1-Benzyloxycarbonyl-4(R)-phenylthiopyrrolidin-2(S)-ylcarbonyl}pyrrolidin-2(S)-ylcarbonyl]thiazole] — 550-fold lower, 4.79 nM
- O=C(c1cocn1)[C@@H]1CCCN1C(=O)[C@@H]1Cc2ccccc2N1C(=O)OCc1ccccc1 [Example 3, 4-{1-(1-Benzyloxycarbonylindolin-2(S)-ylcarbonyl)pyrrolidin2(S) -ylcarbonyl}oxazole] — 270-fold lower, 9.54 nM
- O=C(c1nccs1)[C@@H]1CCCN1C(=O)[C@@H]1CCCN1C(=O)OCc1ccccc1 [Example 4, 2-{1-(1-Benzyloxycarbonylpyrrolidin-2(S)-ylcarbonyl)pyrrolidin-2(S)-ylcarbonyl}thiazole] — 450-fold lower, 5.8 nM
- O=C(c1nccs1)[C@@H]1CCCN1C(=O)[C@@H]1CC2CCCCC2N1C(=O)OCc1ccccc1 (stereo partly drawn) [Example 6, 2-{1(1-Benzyloxycarbonyloctahydroindol-2(S)-ylcarbonyl)pyrrolidin-2(S)ylcarbonyl}thiazole] — 610-fold lower, 4.28 nM
- O=C(c1nccs1)[C@@H]1CCCN1C(=O)[C@@H]1CC2CCCCC2N1C(=O)CCCc1ccccc1 (stereo partly drawn) [Example 7, 2-[1-{1-(4-Phenylbutanoyl)octahydroindol-2(S)-ylcarbonyl}pyrrolidin-2(S)-ylcarbonyl]thiazole] — 1100-fold lower, 2.4 nM
- O=C(c1nccs1)[C@@H]1CCCN1C(=O)[C@@H]1Cc2ccccc2N1C(=O)OCc1ccccc1 [Example 8, 2-{1-(1-Benzyloxycarbonylindolin-2(S)-ylcarbonyl)pyrrolidin-2(S)-ylcarbonyl}thiazole] — 710-fold lower, 3.68 nM
- O=C(c1nccs1)[C@@H]1CCCN1C(=O)[C@@H]1Cc2ccccc2N1C(=O)CCCc1ccccc1 [Example 9, 2-[1-{1-(4-Phenylbutanoyl)indolin-2(S)-ylcarbonyl}pyrrolidin-2(S)-ylcarbonyl]thiazole] — 480-fold lower, 5.49 nM
- O=C(c1nccs1)[C@@H]1CCCN1C(=O)[C@@H]1C[C@@H](Sc2ccccc2)CN1C(=O)CCCc1ccccc1 [Example 10, 2-[1-{1-(4-Phenylbutanoyl)-4(R)-phenylthiopyrrolidin-2(S)-ylcarbonyl}-pyrrolidin-2(S)-ylcarbonyl]thiazole] — 2300-fold lower, 1.12 nM
- O=C(CSCc1ccccc1)C1CCCCC1C(=O)N1CCC[C@H]1C(=O)c1nccs1 (stereo partly drawn) [Example 16, 2-[1-(2-Benzylthioacetylcyclohexan-1-ylcarbonyl)pyrrolidin-2(S)-ylcarbonyl]thiazole] — 49-fold lower, 53.7 nM
- O=C(c1nc2ccccc2s1)[C@@H]1CCCN1C(=O)[C@@H]1CCCN1C(=O)OCc1ccccc1 [Example 17, 2-{1-(1-Benzyloxycarbonylpyrrolidin-2(S)-ylcarbonyl)pyrrolidin-2(S)-ylcarbonyl}benzothiazole] — 690-fold lower, 3.78 nM
- O=C(c1nc2ccccc2s1)[C@@H]1CCCN1C(=O)[C@@H]1Cc2ccccc2N1C(=O)OCc1ccccc1 [Example 18, 2-{1-(1-Benzyloxycarbonylindolin-2(S)-ylcarbonyl)pyrrolidin-2(S)-ylcarbonyl}benzothiazole] — 360-fold lower, 7.33 nM
- O=C(c1nc2ccccc2s1)[C@@H]1CCCN1C(=O)[C@@H]1Cc2ccccc2N1C(=O)CCCc1ccccc1 [Example 19, 2-[1-{1-(4-Phenylbutanoyl)indolin-2(S)-ylcarbonyl}pyrrolidin-2(S)-ylcarbonyl]benzothiazole] — 480-fold lower, 5.44 nM
- O=C(c1nc2ccccc2s1)[C@@H]1CCCN1C(=O)[C@@H]1C[C@@H](Sc2ccccc2)CN1C(=O)OCc1ccccc1 [Example 20, 2-{1-(1-Benzyloxycarbonyl-4(R)-phenylthiopyrrolidin-2(S)-ylcarbonyl)pyrrolidin-2(S)-ylcarbonyl}benzothiazole] — 1100-fold lower, 2.45 nM
- O=C(c1nc2ccccc2s1)[C@@H]1CCCN1C(=O)[C@@H]1C[C@@H](Sc2ccccc2)CN1C(=O)CCCc1ccccc1 [Example 21, 2-[1-{1-(4-Phenylbutanoyl)-4(R)-phenylthiopyrrolidin-2(S)-ylcarbonyl}pyrrolidin-2(S)-ylcarbonyl]benzothiazole] — 1500-fold lower, 1.8 nM
- O=C(CSCc1ccccc1)C1CCCCC1C(=O)N1CCC[C@H]1C(=O)c1nc2ccccc2s1 (stereo partly drawn) [Example 22, 2-[1-(2-Benzylthioacetylcyclohexan-1-ylcarbonyl)pyrrolidin-2(S)-ylcarbonyl]benzothiazole] — 210-fold lower, 12.6 nM
- Cc1nc(C(=O)[C@@H]2CCCN2C(=O)[C@@H]2CCCN2C(=O)CCCc2ccccc2)sc1C [Example 27, 4,5-Dimethyl-2-[1-{1-(4-phenylbutanoyl)pyrrolidin-2(S)-ylcarbonyl}pyrrolidin-2(S)-ylcarbonyl]thiazole] — 430-fold lower, 6.06 nM
- O=C(c1nc2ccccc2[nH]1)[C@@H]1CCCN1C(=O)[C@@H]1CCCN1C(=O)CCCc1ccccc1 [Example 29, 2-[1-{1-(4-Phenylbutanoyl)pyrrolidin-2(S)-ylcarbonyl}pyrrolidin-2(S)-ylcarbonyl]-1H-benzimidazole] — 690-fold lower, 3.82 nM
- O=C(c1cncnc1)[C@@H]1CCCN1C(=O)[C@@H]1CCCN1C(=O)CCCc1ccccc1 [Example 31, 5-[1-{1-(4-Phenylbutanoyl)pyrrolidin-2(S)-ylcarbonyl}pyrrolidin-2(S)-ylcarbonyl]pyrimidine] — 41-fold lower, 64.2 nM
- O=C(c1ccccn1)[C@@H]1CCCN1C(=O)[C@@H]1CCCN1C(=O)CCCc1ccccc1 [Example 32, 2-[1-{1-(4-Phenylbutanoyl)pyrrolidin-2(S)-ylcarbonyl}pyrrolidin-2(S)-ylcarbonyl]pyridine] — 370-fold lower, 7.15 nM
- O=C(c1nc[nH]n1)[C@@H]1CCCN1C(=O)[C@@H]1CCCN1C(=O)CCCc1ccccc1 [Example 34, 3-[1-{1-(4-Phenylbutanoyl)pyrrolidin-2(S)-ylcarbonyl}pyrrolidin-2(S)-ylcarbonyl]1,2,4-triazole] — 430-fold lower, 6.11 nM
- O=C(c1nc2ccccc2o1)[C@@H]1CCCN1C(=O)[C@@H]1CCCN1C(=O)CCCc1ccccc1 [Example 36, 2-[1-{1-(4-Phenylbutanoyl)pyrrolidin-2(S)-ylcarbonyl}pyrrolidin-2(S)-ylcarbonyl]benzoxazole] — 630-fold lower, 4.13 nM
- O=C(c1nc2ncccc2o1)[C@@H]1CCCN1C(=O)[C@@H]1CCCN1C(=O)CCCc1ccccc1 [Example 37, 2-[1 -{1-(4-Phenylbutanoyl)pyrrolidin-2(S)-ylcarbonyl}pyrrolidin-2(S)-ylcarbonyl]oxazolo[4,5-b]pyridine] — 550-fold lower, 4.78 nM
- O=C(c1nc2ncccc2[nH]1)[C@@H]1CCCN1C(=O)[C@@H]1CCCN1C(=O)CCCc1ccccc1 [Example 38, 2-[1-{1-(4-Phenylbutanoyl)pyrrolidin-2(S)-ylcarbonyl}pyrrolidin-2(S)-ylcarbonyl]imidazo[4,5-b]pyridine] — 430-fold lower, 6.09 nM
- O=C(c1nc2ccccc2[nH]1)[C@@H]1CCCN1C(=O)[C@@H]1CCCN1C(=O)OCc1ccccc1 [Example 39] — 340-fold lower, 7.61 nM
- COc1nccnc1C(=O)[C@@H]1CCCN1C(=O)[C@@H]1CCCN1C(=O)CCCc1ccccc1 [Example 40, 2-Methoxy-3-[1-{1-(4-phenylbutanoyl)pyrrolidine-2(S)-ylcarbonyl}pyrrolidin-2(S)-ylcarbonyl]pyrazine] — 79-fold lower, 33.3 nM

Same assay, conditions: porcine kidney enzyme, pH 7.8, 37° C., 20 min

Point of comparison: “2-[1-{1-(4-Phenylbutanoyl)indolin-2(S)-ylcarbonyl}pyrrolidin-2(S)-ylcarbonyl]oxazole [Example 24]”, IC50 0.0055 µg/mL. Against it:
- 2-[1-{1-(4-Phenylbutanoyl)pyrrolidin-2(S)-ylcarbonyl}pyrrolidin-2(S)-ylcarbonyl]oxazole [Example 23] — 1.7-fold lower, 0.0032 µg/mL
- 2-[1-{1-(4-Phenylbutanoyl)pyrrolidin-2(S)-ylcarbonyl}pyrrolidin-2(S)-ylcarbonyl]pyrazole [Example 35] — 8.4-fold higher, 0.046 µg/mL
- O=C(c1nccs1)[C@@H]1CCCN1C(=O)[C@@H]1CCCN1C(=O)CCCc1ccccc1 [Example 5, 2-[1-{1(4-Phenylbutanoyl)pyrrolidin-2(S)-ylcarbonyl}pyrrolidin-2(S)-ylcarbonyl]thiazole] — 4.1-fold lower, 0.00133 µg/mL
- O=C(c1cccs1)[C@@H]1CCCN1C(=O)[C@@H]1CCCN1C(=O)CCCc1ccccc1 [Example 26, 2-[1-{1-(4-Phenylbutanoyl)pyrrolidin-2(S)-ylcarbonyl}pyrrolidin-2(S)-ylcarbonyl]thiophene] — 150-fold higher, 0.81 µg/mL
- O=C(c1cncs1)[C@@H]1CCCN1C(=O)[C@@H]1CCCN1C(=O)CCCc1ccccc1 [Example 33, 5-[1-{1-(4-Phenylbutanoyl)pyrrolidin-2(S)-ylcarbonyl}pyrrolidin-2(S)-ylcarbonyl]thiazole] — 50-fold higher, 0.275 µg/mL

Work on `O=C(CSCc1ccccc1)C1CCCC1C(=O)N1CCC[C@H]1C(=O)c1nccs1` (stereo partly drawn) [Example 15, 2-[1-{2-Benzylthioacetylcyclopentan-1-ylcarbonyl)pyrrolidin-2(S)-ylcarbonyl}thiazole] yielded an IC50 of 54.2 nM.

Same assay, conditions: porcine kidney enzyme, pH 7.8, 37° C., 20 min; read-out: IC50 (converted)

Point of comparison: `O=C(c1cccs1)[C@@H]1CCCN1C(=O)[C@@H]1CCCN1C(=O)OCc1ccccc1` [Example 25], IC50 1380 nM. Against it:
- O=C(c1ncc[nH]1)[C@@H]1CCCN1C(=O)[C@@H]1CCCN1C(=O)CCCc1ccccc1 [Example 28, 2-[1-{1-(4-Phenylbutanoyl)pyrrolidin-2(S)-ylcarbonyl}pyrrolidin-2(S)-ylcarbonyl]-1H-imidazole] — 220-fold lower, 6.24 nM
